We go through twelve molecules from patent EP3727043B1 (Golden Gait Biotech, S.L., priority 2017, dated 2019).

Molecules are shown by their SMILES. Like-named read-outs stand apart in the source and are kept apart here.

The conditions of data set [1]: cited from earlier work.
The conditions of data set [2]: cited from earlier work. This is another data set of the same source.
Data set [3] concerns rats with a unilateral 6-hydroxydopamine lesion. In words: LIDs in rats with a unilateral 6-hydroxydopamine lesion. It is filed as in vivo. As to conditions: parkinsonian rat model of LIDs.
Another data set deals with β2* nAChR (Homo sapiens, UniProt P17787). The following applies: nAChR subtype: β2; cited from earlier work.
Chain of β2* nAChR (P17787 26-502): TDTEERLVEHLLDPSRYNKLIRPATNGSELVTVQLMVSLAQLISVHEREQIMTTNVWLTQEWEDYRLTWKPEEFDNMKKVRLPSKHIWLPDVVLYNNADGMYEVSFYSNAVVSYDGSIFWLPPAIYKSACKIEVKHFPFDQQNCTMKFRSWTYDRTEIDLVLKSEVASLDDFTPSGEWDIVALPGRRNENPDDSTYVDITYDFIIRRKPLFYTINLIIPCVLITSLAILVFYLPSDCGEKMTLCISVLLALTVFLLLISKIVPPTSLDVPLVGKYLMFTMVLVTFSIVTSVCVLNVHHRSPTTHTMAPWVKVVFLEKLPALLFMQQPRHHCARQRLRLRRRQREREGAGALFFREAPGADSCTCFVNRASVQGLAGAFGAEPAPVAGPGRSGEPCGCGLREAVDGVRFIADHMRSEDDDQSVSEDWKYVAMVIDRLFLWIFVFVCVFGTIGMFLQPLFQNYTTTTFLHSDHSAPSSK
The target in a further data set is α7 nAChR (Homo sapiens, UniProt P36544). As to conditions: nAChR subtype: α7; cited from earlier work.
Chain of α7 nAChR (P36544 23-502): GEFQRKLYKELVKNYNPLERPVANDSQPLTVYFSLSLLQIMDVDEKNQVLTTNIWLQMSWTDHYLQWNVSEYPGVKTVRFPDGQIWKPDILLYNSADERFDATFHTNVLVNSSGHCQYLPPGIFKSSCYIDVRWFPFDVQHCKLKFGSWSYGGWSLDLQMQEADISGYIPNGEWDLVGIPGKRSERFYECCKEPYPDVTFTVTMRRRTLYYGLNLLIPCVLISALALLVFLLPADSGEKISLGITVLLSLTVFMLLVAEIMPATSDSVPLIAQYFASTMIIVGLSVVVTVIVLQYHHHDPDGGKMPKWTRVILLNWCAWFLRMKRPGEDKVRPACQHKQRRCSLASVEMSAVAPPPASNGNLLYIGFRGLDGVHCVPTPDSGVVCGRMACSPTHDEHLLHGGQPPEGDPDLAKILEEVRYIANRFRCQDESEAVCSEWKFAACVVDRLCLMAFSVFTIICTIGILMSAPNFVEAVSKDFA
Data set [4] has as its system patients with idiopathic PD and levodopa induced dyskinesias (LIDs). The procedure:
At the time the study was performed (2009), there was no FDA accepted instrument for measuring treatment efficacy for LIDs. Therefore, several secondary objectives were utilized to assess efficacy including the Unified Dyskinesia Rating Scale (UDysRS).
A total of 65 male and female subjects with idiopathic PD with LIDs were randomized in the study. The study consisted of 4 phases (FIG. 6A): screening phase (up to 3 weeks), double-blind treatment phase (10 weeks), taper phase (2 weeks), and follow-up phase (2 weeks). The approximate duration of the study for each subject was 17 weeks. […] During the double-blind treatment phase, dosing was begun at Visit 0 at 1 mg every 6 hours (total daily dose [TDD] = 4 mg/day) and escalated upwards at 2-week intervals as follows: 2 mg every 6 hours (TDD = 8 mg/day) at Visit 1 (Week 2); 4 mg every 6 hours (TDD = 16 mg/day) at Visit 2 (Week 4); 6 mg every 6 hours (TDD = 24 mg/day) at Visit 3 (Week 6). Subjects were maintained on 24 mg/day for 4 weeks. The subsequent taper phase (2 weeks total), beginning at Visit 4 (Week 10), consisted of 9 days of drug taper and 5 days off drug prior to Visit 5 (final safety visit). […] Ondansetron was provided by the sponsor and dispensed with each dose escalation step with instructions to use it for nausea and vomiting only during the first 4 days following dose initiation or escalation. […] No other dose down-titration was allowed. Table 5. Dose Escalation Schedule
A total of 65 patients with idiopathic PD and levodopa induced dyskinesias (LIDs) were randomized. Patients were required to have a diagnosis of idiopathic PD and be within a Hoehn & Yahr Stage II - IV while in a peak "ON" state(levodopa in a therapeutic range). They had to have moderate to severely disabling LIDs for at least 25% of the waking day, as determined by Questions 32 and 33 in Part II of the UPDRS and a Mini-Mental State Examination (MMSE) score of ≥26. Patients with atypical Parkinson disorders, prior deep brain stimulation (DBS), unstable angina, a history of ventricular arrhythmias, or active peptic ulcer or a history of schizophrenia, schizoaffective disorder, or bipolar disease were excluded. Patients who actively smoked were also excluded. Table 9: Demographics
The drug, or a placebo identical in appearance and packaging, was administered orally 4 times a day in a blinded fashion. Patients were examined while in an "ON" state, when levodopa was in a therapeutic range. During the treatment phase, dosing was begun at 1 mg every 6 hours (total daily dose=4 mg/day) and escalated upwards at 2-week intervals as follows: 2 mg every 6 hours at Visit 1; 4 mg every 6 hours at Visit 2; 6 mg every 6 hours at Visit 3. Patients were maintained on 24 mg/day for 4 weeks. All patients, study site personnel, raters and the sponsor were blinded to treatment assignment.
The original UPDRS scale was used. […] In the UPDRS Part II, Question 13 is on Falling unrelated to Freezing. […] In Part II, Question 14 is on Freezing when Walking. This is a 5-point item and has two variables freezing and falls. […] Questions 13 and 14 were compared separately (Table 11). […] Table 10: UPDRS Part II (ADL), UPDRS Part III (Motor Examination)
LIDs were assessed by the UDysRS, the main measure of LIDs (Table 12). […] The study was conducted in accordance with the Declaration of Helsinki and Good Clinical Practice Guidelines. All sites received approval from an institutional review board and written informed consent was obtained from each patient prior to participation. Table 12. Unified Dyskinesia Rating Scale (UDysRS)
All hypotheses were tested using 2-sided tests with alpha set at the 0.050 level of significance. In general, efficacy data were summarized by treatment group, and safety data were summarized by treatment group and overall.

The conditions of data set [5]: in vivo; cited from earlier work.
For data set [6], the system named is patients with idiopathic PD and levodopa induced dyskinesias (LIDs). As to conditions: for worsening of Parkinson symptoms (UPDRS Part III, Hoehn and Yahr scales): during the study.
Method: Efficacy was measured with the Unified Dyskinesia Rating Scale (UDysRS), a semi- quantitative assessment, FDA-validated instrument to assess gait, balance and dyskinesia in PD. […] Dosing was begun at 1 mg every 6 hours to a final dose of 24 mg per day.
All hypotheses were tested using 2-sided tests with alpha set at the 0.050 level of significance. In general, efficacy data were summarized by treatment group, and safety data were summarized by treatment group and overall. In all analyses, assumptions such as normality and homogeneity of variance were examined prior to conducting the proposed parametric statistical procedures. Categorical variables were analyzed by Fisher's exact 2- tailed test and continuous variables were tested under 2-sample t-tests. The equality of variances was examined using an F-test before applying the 2-sample t-test.
In the next data set the test system is rats and mice. The following applies: oral application, injection and slow-release minipumps.
The test system of data set [7] is α4β2* nAChR knockout mice. The text has this:
Multiple receptors exist throughout the body with α1β1*, α3β4* and α7 nAChRs being the major subtypes in the peripheral nervous system and α4β2*, α6β2* and α7 nAChRs the primary ones in the brain. The *asterisk denotes the presence of other nAChR subunits in the receptor.

[8] abbreviates: Phase 2 data used for sample size calculation.

Turning to `C[C@@](Cc1ccc(O)c(O)c1)(NN)C(=O)O` [Carbidopa, (-)-L-α-hydrazino-α-methyl-β-(3,4-dihydroxybenzene) propanoic acid monohydrate], the “reduction of the amount of levodopa required to produce a given response” value in data set [1] (in vivo) was “about 75%”. In addition, in [2], the solubility in water result is recorded as “slightly soluble in water”.
As to `OCCCCC#Cc1cncc(OC[C@@H]2CCN2)c1` [sazetidine], the “reduction of LIDs” value in data set [3] was “reduced LIDs to varying extents”.
Consider `Cc1ncccc1OC[C@@H]1CCCN1` [ABT-089], for which the inhibitory constant (Ki) at β2* nAChR is 17 nM.
For `N[C@@H](Cc1ccc(O)c(O)c1)C(=O)O` [Levodopa, (S)-2-amino-3-(3,4-dihydroxyphenyl) propanoic acid], the “plasma half-life of levodopa” value in [1] (without carbidopa) was 50 min. The solubility in water entry in data set [2] is “slightly soluble in water”.
`CN[C@@H](C)C/C=C/c1cncc(OC(C)C)c1` [TC-2696]: the “reduction of LIDs” value in data set [3] was “reduced LIDs to varying extents”.
The same measure, in the same setting: under `c1cncc(OC[C@@H]2CCN2)c1` [A-85380] stands “reduced LIDs to varying extents”.
For the molecule `c1cnc2cc3c(cc2n1)[C@@H]1CNC[C@H]3C1` [Varenicline], in data set [3], the “reduction of LIDs” value is recorded as “reduced LIDs to varying extents”.
With `Clc1cc(N2C[C@@H]3CN[C@@H]3C2)cnc1Cl` [ABT-894], the Ki on β2* nAChR is 0.3 nM.
As to `Cc1ccc(-c2ccc(OC3CN4CCC3CC4)cn2)cc1` (centres unmarked) [AQW051], the Ki on α7 nAChR was 27 nM.
`c1cc2cc(-c3ccc(O[C@H]4CN5CCC4CC5)nn3)ccc2[nH]1` [ABT-107]: on α7 nAChR, the Ki was 0.5 nM.
Consider `O=C(c1ccc(Cl)o1)N1CC2CNCC2C1` (centres unmarked) [AZD 1446], for which, at β2* nAChR, the Ki is 30 nM.
With `CN1CCC[C@H]1c1cccnc1` [Nicotine, (S)-3-[1-methylpyrrolidin-2-yl]pyridine, reference compound], in data set [4] (setting [8]), the “UDysRS part III, Week 10 result; change from baseline, mean” value was 5.2 and the “UDysRS walking, Week 10 result; change from baseline, mean” value is 4.4. In [4] (Visit 4 (Week 10), 21 responders, p = 0.0048 vs placebo), the “PGI-C responders (subjects with a score of 1, 2, or 3)” value came to 77.8%. In addition, the “number of LF-ADL responders (subjects with ≥25% reduction from baseline), difference between treatment groups” value in [4] (Visit 4 (Week 10), p = 0.0453) was “statistically significant difference”. In addition, in [4] (human, in vivo), the “Gait-subtest of the UDysRS versus placebo” value is “statistically superior to placebo”; the “patient- and physician-rated assessments of efficacy versus placebo” value is recorded as “superior to placebo”. Moreover, in [5], the oral bioavailability result is given as “approximately 30%”. In addition, in [6], the “worsening of Parkinson symptoms (UPDRS Part III, Hoehn and Yahr scales)” value was “no worsening of Parkinsonian symptoms”. Besides, in [6] (listed as nicotine), the “worsening of Parkinson symptoms (UPDRS Part III, Hoehn and Yahr scales)” value is “did not cause any worsening of the PD symptoms”. For the same molecule, in data set [6] (of 35 randomized), the “subjects who completed the study” value worked out at 25 subjects, the “subjects who withdrew because of AEs” value was determined as 6 subjects, the “subjects who withdrew because of protocol violations” value was 2 subjects and the “subjects who withdrew from the study” value stood at 10 subjects. Moreover, the “subjects who withdrew because of AEs” value in data set [6] (of 35 randomized, listed as nicotine) is “Six”. The “reduction of LIDs” value with rats and mice is given as “reduced LIDs”. Further, the antidyskinetic effect entry in data set [7] was “did not exert an antidyskinetic effect”.
